US8129355B2, “Ketone ligands for modulating the expression of exogenous genes via an ecdysone receptor complex” (priority 2002, dated 2012)
Like-named read-outs stand apart in the source and are kept apart here.

Target: T1, Bombyx mori EcR (VP16 fusion, switch construct CVBE) with 6XEcRE LacZ reporter (Bombyx mori, UniProt P49881)
T1 construct: expressed in transfected cells; host or cells: Human 293 kidney (HEK-293) cells, retrovirally infected, clone Z3
T1 sequence (P49881 86-606 limits assumed): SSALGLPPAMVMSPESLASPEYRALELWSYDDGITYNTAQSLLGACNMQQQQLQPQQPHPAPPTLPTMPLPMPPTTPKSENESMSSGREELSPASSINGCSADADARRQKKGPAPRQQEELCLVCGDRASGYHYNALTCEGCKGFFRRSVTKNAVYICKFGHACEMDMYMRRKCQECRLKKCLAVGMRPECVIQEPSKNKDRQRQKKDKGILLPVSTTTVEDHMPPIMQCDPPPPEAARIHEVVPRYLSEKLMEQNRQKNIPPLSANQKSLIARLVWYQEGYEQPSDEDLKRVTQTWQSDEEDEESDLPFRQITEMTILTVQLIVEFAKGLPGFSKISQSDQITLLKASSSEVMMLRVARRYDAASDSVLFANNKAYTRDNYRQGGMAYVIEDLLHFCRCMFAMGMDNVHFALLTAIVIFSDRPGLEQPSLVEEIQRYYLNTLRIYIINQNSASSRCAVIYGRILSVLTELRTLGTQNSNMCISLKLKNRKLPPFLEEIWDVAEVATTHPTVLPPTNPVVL
T1 sequence (P19793 1-462 partner): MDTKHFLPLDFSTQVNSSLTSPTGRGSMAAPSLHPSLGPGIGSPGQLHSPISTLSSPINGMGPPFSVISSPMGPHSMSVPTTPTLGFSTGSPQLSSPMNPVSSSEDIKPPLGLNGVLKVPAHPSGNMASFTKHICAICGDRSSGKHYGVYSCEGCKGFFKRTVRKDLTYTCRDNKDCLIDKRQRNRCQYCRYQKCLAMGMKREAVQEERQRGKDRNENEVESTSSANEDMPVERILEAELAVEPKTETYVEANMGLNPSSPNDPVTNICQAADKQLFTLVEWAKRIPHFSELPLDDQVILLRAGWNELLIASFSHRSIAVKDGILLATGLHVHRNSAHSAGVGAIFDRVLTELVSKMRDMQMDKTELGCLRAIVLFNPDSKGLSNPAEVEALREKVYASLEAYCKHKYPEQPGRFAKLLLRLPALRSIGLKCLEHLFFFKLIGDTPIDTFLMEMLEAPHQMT
Test: Z3 assay: β-galactosidase (LacZ) reporter gene fold induction in stably transformed human 293 kidney cells (clone Z3)
Assay type: cell-based
Outline: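 β-Galactosidase read 48 h after dosing by bioluminescent assay; ligand added at 33 μM with DMSO held at 0.03%. The cells are stable 293 clone Z3, expressing a CMV-driven VP16 fusion of Bombyx mori EcR residues 26-546 plus six EcRE copies upstream of lacZ.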

[1] = maximum fold induction at any concentration relative to that of GS-E ligand
[2] = read-out: Fold Induction Average, Z3 Assay (33 μM)
[3] = read-out: Z3 LC50; average; dose response, three-parameter logistic model
[4] = average; dose response, three-parameter logistic model; read-out: Z3 LC50
[5] = single dose 33 μM; ligand treated / DMSO treated cells
[6] = single dose 33 μM; ligand treated / DMSO treated cells; read-out: Fold Induction Average, Z3 Assay (33 μM)

Compound	Z3 Rel Max FI [1]	fold induction at 33 µM [2]	CC50 [3] [µM]	CC50 [4] [µM]	Fold Induction Average, Z3 Assay (33 μM) [5]	fold induction at 33 µM [6]
COc1cccc(C(=O)NC(C)(Cc2ccccc2)C(=O)c2cc(C)cc(C)c2)c1C (stereo not drawn) [Example 12]	0.09	76	10	–	–	–
COc1cccc(C(=O)NC2(C(=O)c3ccc(F)cc3)CCCCC2)c1C [Example 60]	0.61	817	~6	–	–	–
COc1ccccc1C(=O)C1(NC(=O)c2cccc(OC)c2C)CCCC1 [Example 40]	0.70	951	5.16	–	–	–
COc1cccc(C(=O)NC2(C(=O)c3ccc(C)cc3)CCCC2)c1C [Example 79]	0.12	–	–	34.4	–	–
CCc1c(OC)cccc1C(=O)NC1(C(=O)c2cc(C)cc(C)c2)CCCC1 [Example 144]	0.86	–	–	2.15	–	–
COc1cccc(C(=O)NC2(C(=O)c3ccc(F)c(C)c3)CCCCC2)c1C [Example 18]	0.67	657	3.41	–	–	–
COc1ccccc1C(=O)C(C)(NC(=O)c1cccc(OC)c1C)c1ccc(F)cc1 (stereo not drawn) [Example 72]	–	–	–	–	1	–
CCC(CC)(NC(=O)c1cccc(OC)c1C)C(=O)c1ccc(F)c(C)c1 [Example 50]	0.07	178	10.4	–	–	–
COc1cccc(C(=O)NC2(C(=O)c3ccccc3C)CCCCC2)c1C [Example 44]	0.23	94	16.8	–	–	–
COc1cccc(C(=O)NC2(C(=O)c3cc(C)cc(C)c3)CCN(C(C)=O)CC2)c1C [Example 149]	–	–	–	–	–	2
COc1cccc(C(=O)NC2(C(=O)c3cc(C)cc(C)c3)CCCCCC2)c1C [Example 71]	0.69	–	–	1.61	952	–
COc1cccc(C(=O)NC(C)(C(=O)c2cc(C)cc(C)c2)C(C)C)c1C (stereo not drawn) [Example 20]	0.75	573	2.06	–	–	–
CCc1c(C(=O)NC2(C(=O)c3ccccc3)CCCC2)ccc2c1OCCO2 [Example 22]	0.48	602	~10	–	–	–
COc1ccccc1C(=O)C1(NC(=O)c2cccc(OC)c2C)CCCCCC1 [Example 70]	0.78	–	–	1.94	831	–
COc1cccc(C(=O)NC2(C(=O)c3cc(F)c(F)c(OC)c3)CCCCC2)c1C [Example 68]	0.70	1010	2.83	–	–	–
CCC(CC)(NC(=O)c1cccc(OC)c1C)C(=O)c1cccc(C)c1 [Example 48]	0.25	–	–	6.61	–	356
COc1cccc(C(=O)C(C)(NC(=O)c2cccc(OC)c2C)C(C)C)c1 (stereo not drawn) [Example 32]	0.12	33	25.5	–	–	–
CCC(CC)(NC(=O)c1cccc(OC)c1C)C(=O)c1ccc(F)cc1 [Example 38]	0.04	–	–	13.7	–	51
